Results from PubChem BioAssay AID1918996 (Molecular Pharmacology Branch, DTP, NCI, 2023).
pIC50: −log10 of the molar value.

Test system: 349418-098-R-PDC complex spheroid growth
Test: Anticancer human tumor 349418-098-R-PDC patient-derived lung adenocarcinoma cell line growth inhibition [AhR]
Details: for pIC50: curve of first compound; for viability, T/C: stronger effect = lower value
Outline: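 Spheroids combined tumor cells with HUVEC endothelial cells and human MSCs as stroma. AhR antagonists were paired with standard or investigational drugs, each dosed in half-log steps down from near clinical Cmax, or from 10 microM where Cmax was unknown.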

[1] = second compound 0.1 µM, first compound 0.0316 µM
[2] = second compound 0.1 µM, first compound 0.1 µM
[3] = second compound 0.1 µM, first compound 0.316 µM
[4] = second compound 0.1 µM, first compound 1 µM
[5] = second compound 0.316 µM, first compound 0.0316 µM
[6] = second compound 0.316 µM, first compound 0.1 µM
[7] = second compound 0.316 µM, first compound 0.316 µM
[8] = second compound 0.316 µM, first compound 1 µM
[9] = second compound 1 µM, first compound 0.0316 µM
[10] = second compound 1 µM, first compound 0.1 µM
[11] = second compound 1 µM, first compound 0.316 µM
[12] = second compound 1 µM, first compound 1 µM
[13] = second compound 3.16 µM, first compound 0.0316 µM
[14] = second compound 3.16 µM, first compound 0.1 µM
[15] = second compound 3.16 µM, first compound 0.316 µM
[16] = second compound 3.16 µM, first compound 1 µM
[17] = second compound 10 µM, first compound 0.0316 µM
[18] = second compound 10 µM, first compound 0.1 µM
[19] = second compound 10 µM, first compound 0.316 µM
[20] = second compound 10 µM, first compound 1 µM
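Further: spheroids exposed to agents for seven days before luminescence viability read.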

Work on Nc1ncn(C2CC(O)C(CO)O2)c(=O)n1 (stereo not given) + Cc1cncc(-c2nc(NCCc3c[nH]c4ccccc34)c3ncn(C(C)C)c3n2)c1 yielded a pIC50 (second compound 0.1 µM) of 6.75, a pIC50 (second compound 0.316 µM) of 6.66 and a pIC50 (second compound 1 µM) of 6.52. The pIC50 (second compound 3.16 µM) was greater than 8.50, the pIC50 (second compound 10 µM) was greater than 8.50 and the viability, T/C (second compound 0.1 µM, first compound 0.00316 µM) was 88.5%. It also gave a viability, T/C (second compound 0.1 µM, first compound 0.01 µM) of 97.9%, a viability, T/C [1] of 80.3% and a viability, T/C [2] of 59.9%. For the same molecule, the viability, T/C [3] was 40.9%, the viability, T/C [4] was 29.1% and the viability, T/C (second compound 0.316 µM, first compound 0.00316 µM) was 93%. It also gave a viability, T/C (second compound 0.316 µM, first compound 0.01 µM) of 88.3%, a viability, T/C [5] of 83.2% and a viability, T/C [6] of 69.9%. The viability, T/C [7] was 40.7%, the viability, T/C [8] was 25.7% and the viability, T/C (second compound 1 µM, first compound 0.00316 µM) was 84.6%. For the same molecule, the viability, T/C (second compound 1 µM, first compound 0.01 µM) was 87.2%, the viability, T/C [9] was 82.7% and the viability, T/C [10] was 68.6%. The viability, T/C [11] was 50.1%, the viability, T/C [12] was 34.3% and the viability, T/C (second compound 3.16 µM, first compound 0.00316 µM) was 20.6%. For the same molecule, the viability, T/C (second compound 3.16 µM, first compound 0.01 µM) was 21.6%, the viability, T/C [13] was 21.9% and the viability, T/C [14] was 17.4%. For the same molecule, the viability, T/C [15] was 17.7%, the viability, T/C [16] was 16.2% and the viability, T/C (second compound 10 µM, first compound 0.00316 µM) was 1.51%. The viability, T/C (second compound 10 µM, first compound 0.01 µM) was 1.55%, the viability, T/C [17] was 1.75% and the viability, T/C [18] was 1.51%. It also gave a viability, T/C [19] of 1.2% and a viability, T/C [20] of 1.31%.
In the case of COc1ccc([C@@H](O)c2cc(-c3ncnc4cc(N5CCOCC5)ccc34)c(F)cc2Cl)nn1 + CC(CO)NC(=O)c1cc(-c2ccc(Cl)cc2)nn(-c2cnn(C)c2)c1=O, the pIC50 (second compound 0.1 µM) was 5.69, the pIC50 (second compound 0.316 µM) was 5.90 and the pIC50 (second compound 1 µM) was 6.07. For the same molecule, the pIC50 (second compound 3.16 µM) was 5.97, the pIC50 (second compound 10 µM) was 6.43 and the viability, T/C [1] was 81.3%. The viability, T/C [2] was 89.9%, the viability, T/C [3] was 62.5% and the viability, T/C [4] was 75.7%. For the same molecule, the viability, T/C (second compound 0.1 µM, first compound 3.16 µM) was 35.3%, the viability, T/C (second compound 0.1 µM, first compound 10 µM) was 13.8% and the viability, T/C [5] was 89.3%. For the same molecule, the viability, T/C [6] was 89.7%, the viability, T/C [7] was 87% and the viability, T/C [8] was 55.5%. For the same molecule, the viability, T/C (second compound 0.316 µM, first compound 3.16 µM) was 25.4%, the viability, T/C (second compound 0.316 µM, first compound 10 µM) was 15.4% and the viability, T/C [9] was 96.9%. For the same molecule, the viability, T/C [10] was 119%, the viability, T/C [11] was 97.1% and the viability, T/C [12] was 41%. It also gave a viability, T/C (second compound 1 µM, first compound 3.16 µM) of 41.2%, a viability, T/C (second compound 1 µM, first compound 10 µM) of 13.2% and a viability, T/C [13] of 66.2%. It also gave a viability, T/C [14] of 85.8%, a viability, T/C [15] of 64.8% and a viability, T/C [16] of 50.1%. It also gave a viability, T/C (second compound 3.16 µM, first compound 3.16 µM) of 30%, a viability, T/C (second compound 3.16 µM, first compound 10 µM) of 13.5% and a viability, T/C [17] of 53.6%. The viability, T/C [18] was 52.6%, the viability, T/C [19] was 53.3% and the viability, T/C [20] was 36.9%. For the same molecule, the viability, T/C (second compound 10 µM, first compound 3.16 µM) was 17% and the viability, T/C (second compound 10 µM, first compound 10 µM) was 13.5%.
Molecule Nc1ncn(C2CC(O)C(CO)S2)c(=O)n1 (stereo not given) + Cc1ccccc1N=Nc1ccc(NC(=O)c2ccnn2C)c(C)c1 has a pIC50 (second compound 0.1 µM) of 7.04, a pIC50 (second compound 0.316 µM) of 7.09 and a pIC50 (second compound 1 µM) of 7.19. For the same molecule, the pIC50 (second compound 3.16 µM) was 6.96, the pIC50 (second compound 10 µM) was 7.24 and the viability, T/C (second compound 0.1 µM, first compound 0.000949 µM) was 116%. For the same molecule, the viability, T/C (second compound 0.1 µM, first compound 0.003 µM) was 87.8%, the viability, T/C (second compound 0.1 µM, first compound 0.00949 µM) was 83.4% and the viability, T/C (second compound 0.1 µM, first compound 0.03 µM) was 59.1%. The viability, T/C (second compound 0.1 µM, first compound 0.0949 µM) was 60.5%, the viability, T/C (second compound 0.1 µM, first compound 0.3 µM) was 28.6% and the viability, T/C (second compound 0.316 µM, first compound 0.000949 µM) was 111%. For the same molecule, the viability, T/C (second compound 0.316 µM, first compound 0.003 µM) was 63.5%, the viability, T/C (second compound 0.316 µM, first compound 0.00949 µM) was 105% and the viability, T/C (second compound 0.316 µM, first compound 0.03 µM) was 70.2%. For the same molecule, the viability, T/C (second compound 0.316 µM, first compound 0.0949 µM) was 47.7%, the viability, T/C (second compound 0.316 µM, first compound 0.3 µM) was 26.6% and the viability, T/C (second compound 1 µM, first compound 0.000949 µM) was 91.5%. The viability, T/C (second compound 1 µM, first compound 0.003 µM) was 92.7%, the viability, T/C (second compound 1 µM, first compound 0.00949 µM) was 98.7% and the viability, T/C (second compound 1 µM, first compound 0.03 µM) was 67.5%. The viability, T/C (second compound 1 µM, first compound 0.0949 µM) was 41.4%, the viability, T/C (second compound 1 µM, first compound 0.3 µM) was 20.8% and the viability, T/C (second compound 3.16 µM, first compound 0.000949 µM) was 52.2%. For the same molecule, the viability, T/C (second compound 3.16 µM, first compound 0.003 µM) was 72.7%, the viability, T/C (second compound 3.16 µM, first compound 0.00949 µM) was 72.2% and the viability, T/C (second compound 3.16 µM, first compound 0.03 µM) was 66.2%. The viability, T/C (second compound 3.16 µM, first compound 0.0949 µM) was 54.5%, the viability, T/C (second compound 3.16 µM, first compound 0.3 µM) was 18.1% and the viability, T/C (second compound 10 µM, first compound 0.000949 µM) was 73.6%. For the same molecule, the viability, T/C (second compound 10 µM, first compound 0.003 µM) was 67.5%, the viability, T/C (second compound 10 µM, first compound 0.00949 µM) was 65.7% and the viability, T/C (second compound 10 µM, first compound 0.03 µM) was 62.1%. The viability, T/C (second compound 10 µM, first compound 0.0949 µM) was 40.8% and the viability, T/C (second compound 10 µM, first compound 0.3 µM) was 28.9%.
